US9738634B2, “Heterocyclic amide compound and herbicide” (SYNGENTA PARTICIPATIONS AG, priority 2013, dated 2017)

Assays:
Assay type in all cases: in vivo
Conditions in all cases: treatment dosage 320 g/ha
beet [1] = assay: Test Example 4: foliar treatment, effect on crop; f: beet
Method in brief: (§1)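 Seeds are spot-sown into sterilized diluvial soil and covered with about 1.5 cm of soil. After 14 days' greenhouse growth at 25 to 30° C, plants are sprayed on stems and leaves with diluted emulsion at the stated g/ha rate, then scored at 3 weeks.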

corn [2] = assay: Test Example 4: foliar treatment, effect on crop; c: corn
Method in brief: as §1

barnyard grass [3] = assay: Test Example 4: weedkilling efficacy by foliar treatment; F: barnyard grass
Method in brief: as §1

corn [4] = assay: Test Example 3: soil treatment, effect on crop; c: corn
Method in brief: (§2)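 Crop and weed responses were judged three weeks after a uniform surface spray of the water-diluted emulsion at the given g/ha rate. Seeds sat beneath about 1.5 cm of sterilized diluvial soil, and boxes stood in a greenhouse at 25 to 30° C.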

transplanted rice = assay: Test Example 1: preemergent weed treatment in the submerged state, effect on crop; a: transplanted rice
Method in brief: (§3)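 Visual scores against set criteria were taken 3 weeks after treatment. Compounds, as diluted emulsions at specified g/ha, went onto the water surface of 4 cm-flooded alluvial soil pots on the day weeds were sown and 2.5-leaf rice was transplanted; greenhouse held 25–30 °C.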

black-grass [5] = assay: Test Example 3: weedkilling efficacy through soil treatment; H: black-grass
Method in brief: as §2

wild oat [6] = assay: Test Example 4: weedkilling efficacy by foliar treatment; G: wild oat
Method in brief: as §1

barnyard grass [7] = assay: Test Example 3: weedkilling efficacy through soil treatment; F: barnyard grass
Method in brief: as §2

birds-eye speedwell = assay: Test Example 4: weedkilling efficacy by foliar treatment; p: birds-eye speedwell
Method in brief: as §1

Italian ryegrass [8] = assay: Test Example 4: weedkilling efficacy by foliar treatment; I: Italian ryegrass
Method in brief: as §1

oval-leafed pondweed [9] = assay: Test Example 1: weedkilling efficacy, preemergent weed treatment in the submerged state; C: oval-leafed pondweed
Method in brief: as §3

soybean [10] = assay: Test Example 4: foliar treatment, effect on crop; d: soybean
Method in brief: as §1

Indian mallow [11] = assay: Test Example 3: weedkilling efficacy through soil treatment; K: Indian mallow
Method in brief: as §2

green foxtail [12] = assay: Test Example 4: weedkilling efficacy by foliar treatment; E: green foxtail
Method in brief: as §1

Italian ryegrass [13] = assay: Test Example 3: weedkilling efficacy through soil treatment; I: Italian ryegrass
Method in brief: as §2

beet [14] = assay: Test Example 3: soil treatment, effect on crop; f: beet
Method in brief: as §2

fig-leafed goosefoot [15] = assay: Test Example 3: weedkilling efficacy through soil treatment; M: fig-leafed goosefoot
Method in brief: as §2

catchweed = assay: Test Example 4: weedkilling efficacy by foliar treatment; O: catchweed
Method in brief: as §1

chickweed [16] = assay: Test Example 4: weedkilling efficacy by foliar treatment; N: chickweed
Method in brief: as §1

redroot pigweed [17] = assay: Test Example 3: weedkilling efficacy through soil treatment; L: redroot pigweed
Method in brief: as §2

barnyard grass [18] = assay: Test Example 2: weedkilling efficacy, growth period weed treatment in the submerged state; A: barnyard grass
Method in brief: (§4)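 Barnyard grass, bulrush and oval-leafed pondweed sown in alluvial soil under 4 cm flooding, greenhouse 25 to 30° C. At 1-2 leaf stage, water-diluted emulsion applied to the water surface at stated g/ha dosages; effects scored 3 weeks later.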

barnyard grass [19] = assay: Test Example 1: weedkilling efficacy, preemergent weed treatment in the submerged state; A: barnyard grass
Method in brief: as §3

common wind-grass [20] = assay: Test Example 3: weedkilling efficacy through soil treatment; J: common wind-grass
Method in brief: as §2

rapeseed [21] = assay: Test Example 4: foliar treatment, effect on crop; g: rapeseed
Method in brief: as §1

wheat [22] = assay: Test Example 3: soil treatment, effect on crop; e: wheat
Method in brief: as §2

oval-leafed pondweed [23] = assay: Test Example 2: weedkilling efficacy, growth period weed treatment in the submerged state; C: oval-leafed pondweed
Method in brief: as §4

crabgrass [24] = assay: Test Example 3: weedkilling efficacy through soil treatment; D: crabgrass
Method in brief: as §2

crabgrass [25] = assay: Test Example 4: weedkilling efficacy by foliar treatment; D: crabgrass
Method in brief: as §1

rapeseed [26] = assay: Test Example 3: soil treatment, effect on crop; g: rapeseed
Method in brief: as §2

chickweed [27] = assay: Test Example 3: weedkilling efficacy through soil treatment; N: chickweed
Method in brief: as §2

soybean [28] = assay: Test Example 3: soil treatment, effect on crop; d: soybean
Method in brief: as §2

fig-leafed goosefoot [29] = assay: Test Example 4: weedkilling efficacy by foliar treatment; M: fig-leafed goosefoot
Method in brief: as §1

wild oat [30] = assay: Test Example 3: weedkilling efficacy through soil treatment; G: wild oat
Method in brief: as §2

bulrush [31] = assay: Test Example 2: weedkilling efficacy, growth period weed treatment in the submerged state; B: bulrush
Method in brief: as §4

directly sown rice [32] = assay: Test Example 3: soil treatment, effect on crop; b: directly sown rice
Method in brief: as §2

redroot pigweed [33] = assay: Test Example 4: weedkilling efficacy by foliar treatment; L: redroot pigweed
Method in brief: as §1

green foxtail [34] = assay: Test Example 3: weedkilling efficacy through soil treatment; E: green foxtail
Method in brief: as §2

black-grass [35] = assay: Test Example 4: weedkilling efficacy by foliar treatment; H: black-grass
Method in brief: as §1

Indian mallow [36] = assay: Test Example 4: weedkilling efficacy by foliar treatment; K: Indian mallow
Method in brief: as §1

directly sown rice [37] = assay: Test Example 4: foliar treatment, effect on crop; b: directly sown rice
Method in brief: as §1

bulrush [38] = assay: Test Example 1: weedkilling efficacy, preemergent weed treatment in the submerged state; B: bulrush
Method in brief: as §3

wheat [39] = assay: Test Example 4: foliar treatment, effect on crop; e: wheat
Method in brief: as §1

common wind-grass [40] = assay: Test Example 4: weedkilling efficacy by foliar treatment; J: common wind-grass
Method in brief: as §1

## CC1=C(c2ccccc2)C(=O)N(C(C)(C)C(=O)Nc2cc(F)nc(F)c2)CO1 [B-4-04]
Beet [1]
  f (beet) effect on crop grade: 4 (weed kill ratio 70% or more, less than 90%)
Corn [2]
  c (corn) effect on crop grade: 1 (weed kill ratio 5% or more, less than 20%)
Barnyard grass [3]
  F (barnyard grass) weedkilling efficacy grade: 4 (weed kill ratio 70% or more, less than 90%)
Corn [4]
  c (corn) effect on crop grade: 0 (weed kill ratio 5% or less (practically no effect))
Transplanted rice
  a (transplanted rice) effect on crop grade: 0 (weed kill ratio 5% or less (practically no effect))
black-grass [5]
  H (black-grass) weedkilling efficacy grade: 5 (weed kill ratio 90% or more, (practically complete withering))
Wild oat [6]
  G (wild oat) weedkilling efficacy grade: 2 (weed kill ratio 20% or more, less than 40%)
Barnyard grass [7]
  F (barnyard grass) weedkilling efficacy grade: 5 (weed kill ratio 90% or more, (practically complete withering))
birds-eye speedwell
  P (birds-eye speedwell) weedkilling efficacy grade: 4 (weed kill ratio 70% or more, less than 90%)
Italian ryegrass [8]
  I (Italian ryegrass) weedkilling efficacy grade: 4 (weed kill ratio 70% or more, less than 90%)
oval-leafed pondweed [9]
  C (oval-leafed pondweed) weedkilling efficacy grade: 5 (weed kill ratio 90% or more, (practically complete withering))
Soybean [10]
  d (soybean) effect on crop grade: 1 (weed kill ratio 5% or more, less than 20%)
Indian mallow [11]
  K (Indian mallow) weedkilling efficacy grade: 0 (weed kill ratio 5% or less (practically no effect))
Green foxtail [12]
  E (green foxtail) weedkilling efficacy grade: 4 (weed kill ratio 70% or more, less than 90%)
Italian ryegrass [13]
  I (Italian ryegrass) weedkilling efficacy grade: 5 (weed kill ratio 90% or more, (practically complete withering))
Beet [14]
  f (beet) effect on crop grade: 2 (weed kill ratio 20% or more, less than 40%)
fig-leafed goosefoot [15]
  M (fig-leafed goosefoot) weedkilling efficacy grade: 3 (weed kill ratio 40% or more, less than 70%)
catchweed
  O (catchweed) weedkilling efficacy grade: 4 (weed kill ratio 70% or more, less than 90%)
Chickweed [16]
  N (chickweed) weedkilling efficacy grade: 3 (weed kill ratio 40% or more, less than 70%)
Redroot pigweed [17]
  L (redroot pigweed) weedkilling efficacy grade: 3 (weed kill ratio 40% or more, less than 70%)
Barnyard grass [18]
  A (barnyard grass) weedkilling efficacy grade: 5 (weed kill ratio 90% or more, (practically complete withering))
Barnyard grass [19]
  A (barnyard grass) weedkilling efficacy grade: 5 (weed kill ratio 90% or more, (practically complete withering))
Common wind-grass [20]
  J (common wind-grass) weedkilling efficacy grade: 5 (weed kill ratio 90% or more, (practically complete withering))
Rapeseed [21]
  g (rapeseed) effect on crop grade: 3 (weed kill ratio 40% or more, less than 70%)
Wheat [22]
  e (wheat) effect on crop grade: 0 (weed kill ratio 5% or less (practically no effect))
oval-leafed pondweed [23]
  C (oval-leafed pondweed) weedkilling efficacy grade: 5 (weed kill ratio 90% or more, (practically complete withering))
Crabgrass [24]
  D (crabgrass) weedkilling efficacy grade: 5 (weed kill ratio 90% or more, (practically complete withering))
Crabgrass [25]
  D (crabgrass) weedkilling efficacy grade: 4 (weed kill ratio 70% or more, less than 90%)
Rapeseed [26]
  g (rapeseed) effect on crop grade: 4 (weed kill ratio 70% or more, less than 90%)
Chickweed [27]
  N (chickweed) weedkilling efficacy grade: 4 (weed kill ratio 70% or more, less than 90%)
Soybean [28]
  d (soybean) effect on crop grade: 0 (weed kill ratio 5% or less (practically no effect))
fig-leafed goosefoot [29]
  M (fig-leafed goosefoot) weedkilling efficacy grade: 4 (weed kill ratio 70% or more, less than 90%)
Wild oat [30]
  G (wild oat) weedkilling efficacy grade: 0 (weed kill ratio 5% or less (practically no effect))
Bulrush [31]
  B (bulrush) weedkilling efficacy grade: 5 (weed kill ratio 90% or more, (practically complete withering))
Directly sown rice [32]
  b (directly sown rice) effect on crop grade: 3 (weed kill ratio 40% or more, less than 70%)
Redroot pigweed [33]
  L (redroot pigweed) weedkilling efficacy grade: 3 (weed kill ratio 40% or more, less than 70%)
Green foxtail [34]
  E (green foxtail) weedkilling efficacy grade: 5 (weed kill ratio 90% or more, (practically complete withering))
black-grass [35]
  H (black-grass) weedkilling efficacy grade: 4 (weed kill ratio 70% or more, less than 90%)
Indian mallow [36]
  K (Indian mallow) weedkilling efficacy grade: 5 (weed kill ratio 90% or more, (practically complete withering))
Directly sown rice [37]
  b (directly sown rice) effect on crop grade: 4 (weed kill ratio 70% or more, less than 90%)
Bulrush [38]
  B (bulrush) weedkilling efficacy grade: 5 (weed kill ratio 90% or more, (practically complete withering))
Wheat [39]
  e (wheat) effect on crop grade: 4 (weed kill ratio 70% or more, less than 90%)
Common wind-grass [40]
  J (common wind-grass) weedkilling efficacy grade: 4 (weed kill ratio 70% or more, less than 90%)
